Experimental data published in PubChem BioAssay AID248 (DTP/NCI, 2004).
Values joined by “and” are separate entries in the source; they are usually repeats but may differ in a detail not shown here. Equal entries are not always repeated. Inconclusive results and toxic doses are left out. Cut-off read from the data, not from the text of the source: active = T/C of 150% or more; inactive = T/C below 125%. Peptide text beside a SMILES is read from it. * marks the point of attachment. Cbz = O=C(OCc1ccccc1)*

Test system: L1210 leukemia ip in BDF1 mice, survival T/C
Assay: NCI In Vivo Anticancer Drug Screen. Data for tumor model L1210 Leukemia (intraperitoneal) in B6D2F1 (BDF1) mice
Conditions: endpoint: mean survival time, higher = longer survival
In short: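 Tumor was transplanted into mice, which were then dosed with test compound or vehicle alone. Survival was recorded for each group, and the treated figure was expressed relative to the control figure.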

[1] = dose: 100.0 mg/kg/injection, schedule: Q01DX001 (ip), vehicle: Klucel (hydroxypropylcellulose) (HPC)
[2] = dose: 100.0 mg/kg/injection, schedule: Q04DX003 (ip), vehicle: Klucel (hydroxypropylcellulose) (HPC)
[3] = dose: 200.0 mg/kg/injection, schedule: Q01DX001 (ip), vehicle: Klucel (hydroxypropylcellulose) (HPC)
[4] = dose: 200.0 mg/kg/injection, schedule: Q04DX003 (ip), vehicle: Klucel (hydroxypropylcellulose) (HPC)
[5] = dose: 400.0 mg/kg/injection, schedule: Q01DX001 (ip), vehicle: Klucel (hydroxypropylcellulose) (HPC)
[6] = dose: 400.0 mg/kg/injection, schedule: Q04DX003 (ip), vehicle: Klucel (hydroxypropylcellulose) (HPC)
[7] = dose: 100.0 mg/kg/injection, schedule: Q04DX003 (ip), vehicle: saline with Tween-80
[8] = dose: 200.0 mg/kg/injection, schedule: Q04DX003 (ip), vehicle: saline with Tween-80
[9] = dose: 50.0 mg/kg/injection, schedule: Q01DX001 (ip), vehicle: saline
[10] = dose: 100.0 mg/kg/injection, schedule: Q01DX001 (ip), vehicle: saline
[11] = dose: 400.0 mg/kg/injection, schedule: Q04DX003 (ip), vehicle: saline with Tween-80
[12] = dose: 25.0 mg/kg/injection, schedule: Q01DX009 (ip), vehicle: saline
[13] = dose: 50.0 mg/kg/injection, schedule: Q01DX009 (ip), vehicle: saline
[14] = dose: 25.0 mg/kg/injection, schedule: Q01DX009 (ip), vehicle: Klucel (hydroxypropylcellulose) (HPC)
[15] = dose: 50.0 mg/kg/injection, schedule: Q01DX009 (ip), vehicle: Klucel (hydroxypropylcellulose) (HPC)
[16] = dose: 100.0 mg/kg/injection, schedule: Q01DX009 (ip), vehicle: saline
[17] = dose: 100.0 mg/kg/injection, schedule: Q04DX003 (ip), vehicle: saline
[18] = dose: 200.0 mg/kg/injection, schedule: Q01DX009 (ip), vehicle: saline
[19] = dose: 100.0 mg/kg/injection, schedule: Q01DX009 (ip), vehicle: Klucel (hydroxypropylcellulose) (HPC)

Measured: T/C

CC(C(O)c1ccccc1)C(O)(C(F)(F)Cl)C(F)(F)Cl (stereo not given)
inactive: [1] 102 % of control | [2] 98 % of control | [3] 102 % of control | [4] 88 % of control | [5] 107 % of control | [6] 114 % of control

Cc1cccc(OS(C)(=O)=O)c1N(S(C)(=O)=O)S(C)(=O)=O
inactive: dose: 50.0 mg/kg/injection, schedule: Q01DX001 (ip), vehicle: Klucel (hydroxypropylcellulose) (HPC) 97 % of control | [1] 108 % of control | [3] 95 % of control | [5] 95 % of control

CCN(CC)C(=O)C1C2C=CC(C2)C1C(=O)N(CC)CC (stereo not given)
inactive: [7] 98 % of control | [8] 98 % of control

c1csc(CNCCN2CC2)c1
inactive: dose: 2.5 mg/kg/injection, schedule: Q01DX009 (ip), vehicle: saline 89 % of control | dose: 2.5 mg/kg/injection, schedule: Q04DX003 (ip), vehicle: saline 95 % of control | dose: 5.0 mg/kg/injection, schedule: Q04DX003 (ip), vehicle: saline 103 % of control | dose: 10.0 mg/kg/injection, schedule: Q04DX003 (ip), vehicle: saline 100 % of control

C#CC1(O)CCCC(C)C1 (stereo not given)
inactive: dose: 100.0 mg/kg/injection, schedule: Q01DX009 (ip), vehicle: saline with Tween-80 102 % of control | dose: 200.0 mg/kg/injection, schedule: Q01DX009 (ip), vehicle: saline with Tween-80 97 % of control

O=C(O)c1cccnc1Cl
inactive: [9] 96 % of control | [10] 93 % of control | [2] 96 % of control | [7] 105 % of control | dose: 200.0 mg/kg/injection, schedule: Q01DX001 (ip), vehicle: saline 100 % of control | [4] 97 % of control | [8] 105 % of control | dose: 400.0 mg/kg/injection, schedule: Q01DX001 (ip), vehicle: saline 106 % of control | [6] 91 % of control | [11] 106 % of control

O=C1C(O)=C(c2ccc(Br)cc2)C(=O)C(O)=C1c1ccc(Br)cc1
inactive: dose: 75.0 mg/kg/injection, schedule: Q01DX001 (ip), vehicle: other 103 % of control

C#CCO
inactive: dose: 12.0 mg/kg/injection, schedule: Q01DX009 (ip), vehicle: saline 107 % of control | [12] 110 % of control | [13] 94 % of control

O=C1C=CC(=O)N1C(c1ccccc1)c1ccccc1
inactive: dose: 12.5 mg/kg/injection, schedule: Q01DX009 (ip), vehicle: Klucel (hydroxypropylcellulose) (HPC) 102 % of control | [14] 102 % of control | [15] 102 % of control | dose: 50.0 mg/kg/injection, schedule: Q04DX002 (ip), vehicle: Klucel (hydroxypropylcellulose) (HPC) 94 % of control | dose: 100.0 mg/kg/injection, schedule: Q04DX002 (ip), vehicle: Klucel (hydroxypropylcellulose) (HPC) 88 % of control | dose: 200.0 mg/kg/injection, schedule: Q04DX002 (ip), vehicle: Klucel (hydroxypropylcellulose) (HPC) 101 % of control and 116 % of control and 91 % of control | dose: 400.0 mg/kg/injection, schedule: Q04DX002 (ip), vehicle: Klucel (hydroxypropylcellulose) (HPC) 91 % of control

FC1(F)C2Cc3ccccc3C2C1(F)F (stereo not given)
inactive: [2] 96 % of control | [4] 98 % of control | [6] 100 % of control

COc1nc(N)c([N+](=O)[O-])c(OC)n1
inactive: dose: 16.0 mg/kg/injection, schedule: Q01DX Z (ip), vehicle: methylcellulose (MC) 97 % of control | dose: 31.0 mg/kg/injection, schedule: Q01DX Z (ip), vehicle: methylcellulose (MC) 90 % of control | dose: 62.0 mg/kg/injection, schedule: Q01DX Z (ip), vehicle: methylcellulose (MC) 103 % of control

Cn1c(=O)c2c(ncn2CC(O)CO)n(C)c1=O (stereo not given) (tested in a mixture with another compound)
inactive: [7] 101 % of control | [8] 98 % of control | [11] 95 % of control

NS(=O)(=O)O
inactive: dose: 12.5 mg/kg/injection, schedule: Q01DX009 (ip), vehicle: saline with Tween-80 103 % of control | dose: 25.0 mg/kg/injection, schedule: Q01DX009 (ip), vehicle: saline with Tween-80 95 % of control | dose: 50.0 mg/kg/injection, schedule: Q01DX009 (ip), vehicle: saline with Tween-80 89 % of control

COC(=O)CNC(=O)CNC(=O)OCc1ccccc1 (Cbz-Gly-Gly-OMe)
inactive: [16] 102 % of control | [17] 102 % of control | [18] 100 % of control | dose: 200.0 mg/kg/injection, schedule: Q04DX003 (ip), vehicle: saline 98 % of control | dose: 400.0 mg/kg/injection, schedule: Q01DX009 (ip), vehicle: saline 102 % of control | dose: 400.0 mg/kg/injection, schedule: Q04DX003 (ip), vehicle: saline 107 % of control

CS(=O)(=O)Nc1nc2ccccc2[nH]1
inactive: [13] 96 % of control | [16] 93 % of control | [18] 86 % of control

CCc1cnc(N)nc1N
inactive: [14] 107 % of control | [15] 101 % of control | [1] 107 % of control | [19] 104 % of control

NC(=O)c1[nH]cnc1N1CC[N+](Cc2ccccc2)=N1
inactive: [1] 102 % of control | [3] 96 % of control

O=C(O)/C=C\C(=O)Nc1ccccc1Cl
inactive: [19] 102 % of control | dose: 200.0 mg/kg/injection, schedule: Q01DX009 (ip), vehicle: Klucel (hydroxypropylcellulose) (HPC) 100 % of control | dose: 400.0 mg/kg/injection, schedule: Q01DX009 (ip), vehicle: Klucel (hydroxypropylcellulose) (HPC) 97 % of control

Cc1c(C)c(O)c2c(c1C)C(C)C(=O)OC2=O (stereo not given)
inactive: dose: 5.0 mg/kg/injection, schedule: Q01DX001 (ip), vehicle: saline 104 % of control | dose: 10.0 mg/kg/injection, schedule: Q01DX001 (ip), vehicle: saline 100 % of control | dose: 20.0 mg/kg/injection, schedule: Q01DX001 (ip), vehicle: saline 92 % of control | dose: 40.0 mg/kg/injection, schedule: Q01DX001 (ip), vehicle: saline 97 % of control

CCN(CC)CCn1c2ccccc2c2cc3cnccc3c(C)c21
inactive: dose: 18.75 mg/kg/injection, schedule: Q01DX009 (ip), vehicle: saline 109 % of control | dose: 37.5 mg/kg/injection, schedule: Q01DX009 (ip), vehicle: saline 109 % of control | dose: 37.5 mg/kg/injection, schedule: Q04DX003 (ip), vehicle: Klucel (hydroxypropylcellulose) (HPC) 106 % of control | dose: 75.0 mg/kg/injection, schedule: Q01DX009 (ip), vehicle: saline 114 % of control | dose: 75.0 mg/kg/injection, schedule: Q04DX003 (ip), vehicle: Klucel (hydroxypropylcellulose) (HPC) 105 % of control | dose: 150.0 mg/kg/injection, schedule: Q01DX009 (ip), vehicle: saline 89 % of control | dose: 150.0 mg/kg/injection, schedule: Q04DX003 (ip), vehicle: Klucel (hydroxypropylcellulose) (HPC) 87 % of control

C#CC[N+](CC)(CC)CC
inactive: dose: 25.0 mg/kg/injection, schedule: Q01DX001 (ip), vehicle: saline 100 % of control | [12] 106 % of control and 89 % of control | dose: 25.0 mg/kg/injection, schedule: Q04DX002 (ip), vehicle: saline 95 % of control and 97 % of control | dose: 25.0 mg/kg/injection, schedule: Q04DX003 (ip), vehicle: saline 99 % of control | [9] 100 % of control | [13] 98 % of control and 106 % of control | dose: 50.0 mg/kg/injection, schedule: Q04DX002 (ip), vehicle: saline 107 % of control and 122 % of control | dose: 50.0 mg/kg/injection, schedule: Q04DX003 (ip), vehicle: saline 102 % of control | [10] 105 % of control and 110 % of control | [17] 103 % of control
